In patent US20230105212A1, “BIPHENYL DERIVATIVE INHIBITOR, PREPARATION METHOD THEREFOR AND USE THEREOF” (SHANGHAI HANSOH BIOMEDICAL CO., LTD., priority 2020, published 2023):
Where two headings read alike, the source gives them in different places.

Columns and labels:
[1] = molecular target: T1, human PD-L1 protein (Homo sapiens, UniProt Q9NZQ7); assay: Thermal shift: melting temperature of PD-L1 protein; format: binding; conditions: for ΔTm at 10 µM: read-out: ΔTm (° C.)
T1 construct: purchased Acro Biosystems PD1-H5229
T1 sequence (Q9NZQ7 19-238 limits assumed): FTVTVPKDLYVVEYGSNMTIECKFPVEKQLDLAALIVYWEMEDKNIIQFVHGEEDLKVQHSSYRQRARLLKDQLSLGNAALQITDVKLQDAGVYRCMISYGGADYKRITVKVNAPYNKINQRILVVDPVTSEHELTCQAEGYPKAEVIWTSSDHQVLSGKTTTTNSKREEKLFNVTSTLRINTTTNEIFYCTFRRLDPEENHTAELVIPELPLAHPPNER
Protocol: Test Embodiment 4. Test of Combination of the Compounds of the Present Disclosure to Improve the Stability (Melting Temperature) of PD-L1 Protein Experimental purpose: To test the ability of compounds to enhance the stability of PD-L1 protein and increase the melting temperature of the protein. Experimental method: […] A solution containing […] HEPES, SYPRO Orange, and 150 mM NaCl was prepared as experimental buffer, and human PD-L1 protein was added at a final concentration of 2 μM. […] PCR tube was put into the PCR machine, and the melt curve function was selected to detect the melting temperature of PD-L1 protein in different treatment groups (heated from 25° C. to 95° C., 0.03° C./s). The experimental data file of the PCR instrument was imported into the thermal shift software to obtain the melting temperature (Tm) of each treatment group, and the Tm of the DMSO vehicle control group was subtracted to obtain the change value (ΔTm) of the melting temperature, as shown in the following table: […]

[2] = molecular target: T2, PD-L1 protein on the surface of MC38-hPDL1 tumor cells (Homo sapiens, UniProt Q9NZQ7); assay: Induction of endocytosis of PD-L1 on the surface of tumor cells (flow cytometry); format: cell-based; conditions: 16 hours incubation; for Emax: MC38-hPDL1 cells, read-out: MC38 maximum endocytosis rate; for IC50: inducing endocytosis of PD-L1, MC38-hPDL1 cells, read-out: MC38 IC50
T2 construct: expressed in transfected cells; host or cells: MC38-hPDL1 (mouse colon cancer cells)
T2 sequence (Q9NZQ7 19-290): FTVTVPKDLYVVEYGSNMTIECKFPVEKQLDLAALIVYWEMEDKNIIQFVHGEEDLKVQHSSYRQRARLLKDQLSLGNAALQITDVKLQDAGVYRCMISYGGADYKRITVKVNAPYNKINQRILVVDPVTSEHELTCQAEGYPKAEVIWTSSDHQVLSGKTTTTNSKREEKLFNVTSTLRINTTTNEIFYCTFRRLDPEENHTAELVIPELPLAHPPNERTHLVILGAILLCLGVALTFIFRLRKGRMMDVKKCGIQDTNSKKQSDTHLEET
Method in brief: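 MC38-hPDL1 mouse colon cancer cells overexpressing human PD-L1 were exposed to compound dilutions for 16 h at 37 °C. Surface PD-L1 was then stained with PE anti-human CD274 for 30 min at room temperature and measured by flow cytometry. Endocytosis rate versus concentration was fitted by nonlinear regression to give IC50.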

[3] = compound 10 μM, PD-L1 protein 2 μM, Tm minus DMSO vehicle control

Row | SMILES | ΔTm at 10 µM [1, 3] | Emax [2] | IC50 [2] | ΔTm (° C.) [1, 3] | ΔTm at 10 µM [1]
1 | COc1nc(-c2cccc(-c3cccc(NC(=O)c4nc5c(n4C)CCN(C)C5)c3Cl)c2Cl)ccc1CN1CCN(C(=O)C(C)C)CC1 [Embodiment 199, N-(2,2′-Dichloro-3′-(5-((4-isobutyrylpiperazin-1-yl)methyl)-6-methoxypyridin-2-yl)-[1,1′-biphenyl]-3-yl)-1,5-dimethyl-4,5,6,7-tetrahydro-1H-imidazo[4,5-c]pyridine-2-carboxamide] | 11.4 °C | 93% |  |  | 
2 | COc1nc(-c2cccc(-c3cccc(NC(=O)c4nc5c(n4C)CCN(C)C5)c3Cl)c2Cl)ccc1CN1CC2(C1)CN(C(=O)C(F)(F)F)C2 [Embodiment 189, N-(2,2′-Dichloro-3′-(6-methoxy-5-((6-(2,2,2-trifluoroacetyl)-2,6-diazaspiro[3.3]heptan-2-yl)methyl)pyridin-2-yl)-[1,1′-biphenyl]-3-yl)-1,5-dimethyl-4,5,6,7-tetrahydro-1H-imidazo[4,5-c]pyridine-2-carboxamide] | 19.5 °C | 96% |  |  | 
3 | COc1nc(-c2cccc(-c3cccc(NC(=O)c4nc5c(n4C)CCN(C)C5)c3Cl)c2Cl)ccc1CN[C@@H]1CCOC[C@@H]1F [Embodiment 115, N-(2,2′-Dichloro-3′-(5-((((3R,4R)-3-fluorotetrahydro-2H-pyran-4-yl)amino)methyl)-6-methoxypyridin-2-yl)-[1,1′-biphenyl]-3-yl)-1,5-dimethyl-4,5,6,7-tetrahydro-1H-imidazo[4,5-c]pyridine-2-carboxamide] |  | 93% | 5.3 nM |  | 12.7 °C
4 | COc1nc(-c2cccc(-c3cccc(NC(=O)c4nc5c(n4C)CCN(C)C5)c3Cl)c2Cl)ccc1CN1CC2(CCN(C(=O)C(C)C)C2)C1 [Embodiment 196, N-(2,2′-Dichloro-3′-(5-((6-isobutyryl-2,6-diazaspiro[3.4]octan-2-yl)methyl)-6-methoxypyridin-2-yl)-[1,1′-biphenyl]-3-yl)-1,5-dimethyl-4,5,6,7-tetrahydro-1H-imidazo[4,5-c]pyridine-2-carboxamide] | 12.4 °C | 96% |  |  | 
5 | COc1nc(-c2cccc(-c3cccc(NC(=O)c4nc5c(n4C)CCN(C)C5)c3Cl)c2Cl)ccc1CN1CCN(C(C)=O)CC1 [Embodiment 203, N-(3′-(5-((4-Acetylpiperazin-1-yl)methyl)-6-methoxypyridin-2-yl)-2,2′-dichloro-[1,1′-biphenyl]-3-yl)-1,5-dimethyl-4,5,6,7-tetrahydro-1H-imidazo[4,5-c]pyridine-2-carboxamide] | 13.5 °C | 95% |  | 10.5 °C | 
6 | COc1nc(-c2cccc(-c3cccc(NC(=O)c4nc5c(n4C)CCN(C)C5)c3Cl)c2Cl)ccc1CN1CC2(C1)CN(C(=O)C1CC1)C2 [Embodiment 187, N-(2,2′-Dichloro-3′-(5-((6-(cyclopropylcarbonyl)-2,6-diazaspiro[3.3]heptan-2-yl)methyl)-6-methoxypyridin-2-yl)-[1,1′-biphenyl]-3-yl)-1,5-dimethyl-4,5,6,7-tetrahydro-1H-imidazo[4,5-c]pyridine-2-carboxamide] | 21.1 °C | 95% | 1.1 nM |  | 
7 | COc1nc(-c2cccc(-c3cccc(NC(=O)c4nc5c(n4C)CCN(C)C5)c3Cl)c2Cl)ccc1CN1CC(CC#N)C1 [Embodiment 182, N-(2,2′-Dichloro-3′-(5-((3-(cyanomethyl)azetidin-1-yl)methyl)-6-methoxypyridin-2-yl)-[1,1′-biphenyl]-3-yl)-1,5-dimethyl-4,5,6,7-tetrahydro-1H-imidazo[4,5-c]pyridine-2-carboxamide] | 16.3 °C | 97% |  |  | 
8 | COc1cc(C(=O)Nc2cccc(-c3cccc(NC(=O)c4nc5c(n4C)CCN(C)C5)c3Cl)c2C)ncc1CNc1cc(C)ncn1 [Embodiment 91, N-(2-Chloro-3′-(4-methoxy-5-(((6-methylpyrimidin-4-yl)amino)methyl)picolinamido)-2′-methyl-[1,1′-biphenyl]-3-yl)-1,5-dimethyl-4,5,6,7-tetrahydro-1H-imidazo[4,5-c]pyridine-2-carboxamide] | 10.3 °C | 81% | 14 nM |  | 
9 | CCC(=O)N1CCN(Cc2ccc(-c3cccc(-c4cccc(NC(=O)c5nc6c(n5C)CCN(C)C6)c4Cl)c3Cl)nc2OC)CC1 [Embodiment 201, N-(2,2′-Dichloro-3′-(6-methoxy-5-((4-propionylpiperazin-1-yl)methyl)pyridin-2-yl)-[1,1′-biphenyl]-3-yl)-1,5-dimethyl-4,5,6,7-tetrahydro-1H-imidazo[4,5-c]pyridine-2-carboxamide] | 12.1 °C | 94% |  |  | 
10 | COc1nc(-c2cccc(-c3cccc(NC(=O)c4nc5c(n4C)CCN(C)C5)c3Cl)c2Cl)ccc1CN1CC2CC(C1)N2C(C)=O [Embodiment 206, N-(3′-(5-((6-Acetyl-3,6-diazabicyclo[3.1.1]heptan-3-yl)methyl)-6-methoxypyridin-2-yl)-2,2′-dichloro-[1,1′-biphenyl]-3-yl)-1,5-dimethyl-4,5,6,7-tetrahydro-1H-imidazo[4,5-c]pyridine-2-carboxamide] | 11.6 °C | 90% |  |  | 
11 | COc1nc(-c2cccc(-c3cccc(NC(=O)c4nc5c(n4C)CCN(C)C5)c3Cl)c2Cl)ccc1CN1C2CC1CN(C(=O)C(C)C)C2 [Embodiment 210, N-(2,2′-Dichloro-3′-(5-((3-isobutyryl-3,6-diazabicyclo[3.1.1]heptan-6-yl)methyl)-6-methoxypyridin-2-yl)-[1,1′-biphenyl]-3-yl)-1,5-dimethyl-4,5,6,7-tetrahydro-1H-imidazo[4,5-c]pyridine-2-carboxamide] | 10.7 °C | 88% |  |  | 
12 | COc1nc(-c2cccc(-c3cccc(NC(=O)c4nc5c(n4C)CCN(C)C5)c3Cl)c2Cl)ccc1CN1CCN(C(=O)C2CC2)CC1 [Embodiment 200, N-(2,2′-Dichloro-3′-(5-((4-(cyclopropylcarbonyl)piperazin-1-yl)methyl)-6-methoxypyridin-2-yl)-[1,1′-biphenyl]-3-yl)-1,5-dimethyl-4,5,6,7-tetrahydro-1H-imidazo[4,5-c]pyridine-2-carboxamide] | 12.5 °C | 95% |  |  | 

Continued, in another order:

Row | ΔTm at 10 µM [1, 3] | Emax [2] | IC50 [2] | ΔTm (° C.) [1, 3] | SMILES | ΔTm at 10 µM [1]
13 | 11.9 °C |  |  |  | COC(=O)[C@H](CO)NCc1cnc(-c2cccc(-c3cccc(NC(=O)c4nc5c(n4C)CCN(C)C5)c3Cl)c2Cl)nc1OC [Embodiment 227, Methyl ((2-(2,2′-dichloro-3′-(1,5-dimethyl-4,5,6,7-tetrahydro-1H-imidazo[4,5-c]pyridine-2-carboxamido)-[1,1′-biphenyl]-3-yl)-4-methoxypyrimidin-5-yl)methyl)-L-serinate] | 
14 | 14.6 °C | 95% | 3.1 nM |  | COc1nc(-c2cccc(-c3cccc(NC(=O)c4nc5c(n4C)CCN(C)C5)c3Cl)c2Cl)ccc1CN1CCC(C#N)CC1 [Embodiment 211, N-(2,2′-Dichloro-3′-(5-((4-cyanopiperidin-1-yl)methyl)-6-methoxypyridin-2-yl)-[1,1′-biphenyl]-3-yl)-1,5-dimethyl-4,5,6,7-tetrahydro-1H-imidazo[4,5-c]pyridine-2-carboxamide] | 
15 | 14.9 °C | 94% | 11.6 nM |  | COc1nc(-c2cccc(-c3cccc(NC(=O)c4nc5c(n4C)CCN(C)C5)c3Cl)c2Cl)ccc1CN1CCC(C)(C#N)CC1 [Embodiment 212, N-(2,2′-Dichloro-3′-(5-((4-cyano-4-methylpiperidin-1-yl)methyl)-6-methoxypyridin-2-yl)-[1,1′-biphenyl]-3-yl)-1,5-dimethyl-4,5,6,7-tetrahydro-1H-imidazo[4,5-c]pyridine-2-carboxamide] | 
16 | 11.4 °C | 94% |  |  | COc1nc(-c2cccc(-c3cccc(NC(=O)c4nc5c(n4C4CC4)CCN(C)C5)c3Cl)c2Cl)ccc1CN[C@H]1CCOC[C@@H]1O (relative stereo) [Embodiment 244, 1-Cyclopropyl-N-(2,2′-dichloro-3′-(5-(((trans-3-hydroxytetrahydro-2H-pyran-4-yl)amino)methyl)-6-methoxypyridin-2-yl)-[1,1′-biphenyl]-3-yl)-5-methyl-4,5,6,7-tetrahydro-1H-imidazo[4,5-c]pyridine-2-carboxamide] | 
17 | 10.6 °C | 90% |  |  | CCn1c(C(=O)Nc2cccc(-c3cccc(-c4ccc(CNC5COC5)c(OC)n4)c3Cl)c2Cl)nc2c1CCN(C)C2 [Embodiment 236, N-(2,2′-Dichloro-3′-(6-methoxy-5-((oxetan-3-ylamino)methyl)pyridin-2-yl)-[1,1′-biphenyl]-3-yl)-1-ethyl-5-methyl-4,5,6,7-tetrahydro-1H-imidazo[4,5-c]pyridine-2-carboxamide] | 
18 | 14.5 °C | 96% | 4.1 nM |  | COc1nc(-c2cccc(-c3cccc(NC(=O)c4nc5c(n4C)CCN(C)C5)c3Cl)c2Cl)ccc1CNCC1(C#N)CC1 [Embodiment 213, N-(2,2′-Dichloro-3′-(5-((((1-cyanocyclopropyl)methyl)amino)methyl)-6-methoxypyridin-2-yl)-[1,1′-biphenyl]-3-yl)-1,5-dimethyl-4,5,6,7-tetrahydro-1H-imidazo[4,5-c]pyridine-2-carboxamide] | 
